Data published in patent publication US6531453B1, “NKT cell activators containing α-glycosylceramides” (Kirin Beera Kabushiki Kaisha, priority 1997, dated 2003).

B1: IL-12: interleukin 12 (IL-12), known to activate NKT cells (protein, UniProt P29459 23-219; P29460 23-328, looked up)
Interleukin-12 subunit alpha: RNLPVATPDPGMFPCLHHSQNLLRAVSNMLQKARQTLEFYPCTSEEIDHEDITKDKTSTVEACLPLELTKNESCLNSRETSFITNGSCLASRKTSFMMALCLSSIYEDLKMYQVEFKTMNAKLLMDPKRQIFLDQNMLAVIDELMQALNFNSETVPQKSSLEEPDFYKTKIKLCILLHAFRIRAVTIDRVMSYLNAS
Interleukin-12 subunit beta: IWELKKDVYVVELDWYPDAPGEMVVLTCDTPEEDGITWTLDQSSEVLGSGKTLTIQVKEFGDAGQYTCHKGGEVLSHSLLLLHKKEDGIWSTDILKDQKEPKNKTFLRCEAKNYSGRFTCWWLTTISTDLTFSVKSSRGSSDPQGVTCGAATLSAERVRGDNKEYEYSVECQEDSACPAAEESLPIEVMVDAVHKLKYENYTSSFFIRDIIKPDPPKNLQLKPLKNSRQVEVSWEYPDTWSTPHSYFSLTFCVQVQGKSKREKKDRVFTDKTSATVICRKNASISVRAQDRYYSSSWSEWASVPCS

Key:
[1] = test system: spleen cells of RAG-1KO/Vα14tg/Vβ8.2tg mice (NKT cells); assay: Stimulation of NKT cell proliferation, [3H]thymidine incorporation in spleen cells; assay type: cell-based, mouse; conditions: 2 days incubation
Experimental: Stimulation of NKT cell proliferation by compounds having an α-glycosylceramide structure was studied using spleen cells of RAG-1KO/Vα14tg/Vβ8.2tg mice shown in Pharmacological Test Example 1.
Spleen cells were prepared from the spleen of RAG-1KO/Vα14tg/Vβ8.2tg mice by conventional methods. These spleen cells were suspended at 2×10^6 cells/ml in an RPMI 1640 medium supplemented with 10% FCS, and 100 μl each of the suspension were plated into wells of 96-well round-bottomed plates. Ten different kinds of compounds having an α-glycosylceramide structure shown in FIG. 12 were added to the wells of the plates at a final concentration of 1, 10 or 100 ng/ml, and the plates were incubated for 2 days. Sixteen hours after the addition of [^3H] thymidine (0.5 μCi/well), the cells were harvested. The amount of [^3H] thymidine incorporated into the cells was measured by a liquid scintillation counter.

Vα24+ NKT cells = assay: Stimulation of Vα24+ NKT cell proliferation, autologous mixed leukocyte reaction with treated antigen-presenting cells; assay type: cell-based, human; conditions: antigen-presenting cells treated with 100 ng/ml, FIG. 9
Experimental: Peripheral blood mononuclear cells of a normal human were cultured for 4 days in an AIM medium supplemented with 10% FCS with the addition of GM-CSF (400 U/ml), IL-4 (200 U/ml) and KRN 7000 (100 ng/ml) to prepare antigen-presenting cells.
An autologous mixed leukocyte reaction (MLR) was performed using these antigen-presenting cells as stimulator cells and autologous peripheral blood mononuclear cells as responder cells. After incubation for 10 days, IL-2 (5 U/ml) was added, incubation was continued for another 4 days, and the cells were harvested. Next, CD4, CD8 double negative cells were recovered from these harvested cells and subjected to the phenotype analysis. The phenotypic analysis was expressed by fluorescence intensity of labeled antibodies against cells having various phenotypes.
The cells were cultured using IL-2 (5 U/ml) to stimulate the proliferation of Vα24^+ NKT cells, which were used as responder cells in the following autologous mixed leukocyte reaction. Autologous peripheral blood mononuclear cells were cultured for 4 days with the addition of GM-CSF +IL-4 and 100 ng/ml of KRN 7000, AGL-583 (β-galactosylceramide, β-GalCer) or 0.1% DMSO (vehicle) to prepare antigen-presenting cells. An autologous mixed leukocyte reaction was carried out using these antigen-presenting cells as stimulator cells. […]

[2] = test system: 4% DSS-induced mouse colitis (CDF1 mice); assay: Suppression of 4% DSS-induced mouse colitis; assay type: in vivo; conditions: KRN 7000 100 μg/kg i.p. days 1, 5, 9, IL-12 1 μg/mouse i.p. days 1, 3, 5, 7, 9
Experimental: Ten animals per group of CDF1 mice (6 weeks of age, females) (Japan SLC Inc.) were used for the following experiment. Day 0 was defined as the day when a 4% DSS solution (4% (w/v) dextran sodium sulfate (DSS) dissolved in water) was first provided as drinking water. The animals were divided into 3 groups, i.e., a group to which 100 μg/kg of KRN 7000 were intraperitoneally administered on days 1, 5, and 9, a group to which 1 μg/mouse of IL-12 was intraperitoneally administered on days 1, 3, 5, 7 and 9, and an untreated (control) group. Body weight was measured and survival or death of the animals were observed daily. Changes in body weight and survival rate are shown in FIG. 5A and 5B, respectively.

mice ((CBAxDBA/2)F1) = assay: Induction of abortion in (CBAxDBA/2)F1 mice; assay type: in vivo, mouse; conditions: same amount of IL-12, same manner
Experimental: C57BL/6 mice (Japan SLC) were used for the following experiment. The day when a vaginal plug was observed was defined as day 0. Pregnant mice were divided into 2 groups (6 mice per group), i.e., one group to which 150 μg/kg of KRN 7000 were intravenously administered on days 7, 8 and 9, and another to which PBS (phosphate-buffered saline) was administered in the same way. On day 12, the uterus was removed to observe the state of the embryo.
IL-12 is also known to activate NKT cells. When the same amount of IL-12 was administered to mice ((CBAxDBA/2)F1) in the same manner, the resulting abortion rate was 34%.

Molecule	[3H] Thymidine incorporation (cpm) ([1]; 1 ng/ml, vehicle 2090)	[3H] Thymidine incorporation (cpm) ([1]; 10 ng/ml, vehicle 2056)	[3H] Thymidine incorporation (cpm) ([1]; 100 ng/ml, vehicle 2014)	effect of treated antigen presenting cells on Vα24+ NKT cell proliferation ([3H]thymidine uptake) (Vα24+ NKT cells)	time of weight loss as compared with the control group ([2]; FIG. 5A)	survival period as compared with the control group ([2]; FIG. 5B)	abortion rate (mice ((CBAxDBA/2)F1)) [%]
CCCCCCCCCCCCCCCCCCCCCC[C@@H](O)C(=O)N[C@@H](CO[C@H]1O[C@H](CO)[C@H](O)[C@H](O[C@@H]2O[C@@H]([C@H](O)CO)[C@H](O)[C@H]2O)[C@H]1O)[C@H](O)[C@H](O)CCCCCCCCCCCCCC [719-7, O-β-D-galactofuranosyl-(1→3)-O-α-D-galactopyranosyl-(1→1)-(2S,3S,4R)-2-amino-N-[(R)-2-hydroxytetracosanoyl]-1,3,4-octadecanetriol]	5287	30179	60528				
CCCCCCCCCCCCCCC[C@@H](O)[C@H](CO[C@H]1O[C@H](CO)[C@H](O)[C@H](O)[C@H]1O)NC(=O)CCCCCCCCCCCCC [AGL517, (2S,3R)-1-(α-D-galactopyranosyloxy)-2-tetradecanoyl amino-3-octadecanol]	3176	15583	83169				
CCCCCCCCCCCCCCC[C@@H](O)[C@H](CO[C@H]1O[C@H](CO)[C@@H](O)[C@H](O)[C@H]1O)NC(=O)CCCCCCCCCCCCC [AGL563, (2S,3R)-1-(α-D-glucopyranosyloxy)-2-tetradecanoyl amino-3-octadecanol]	2063	3773	13131				
CCCCCCCCCCCCCCC[C@@H](O)[C@H](CO[C@H]1O[C@H](C)[C@H](O)[C@H](O)[C@H]1O)NC(=O)CCCCCCCCCCCCC [AGL571, (2S,3R)-1-(6′-deoxy-α-D-galactopyranosyloxy)-2-tetra decanoylamino-3-octadecanol]	3969	17848	118092				
CCCCCCCCCCCCCCC[C@@H](O)[C@H](CO[C@H]1OC[C@H](O)[C@H](O)[C@H]1O)NC(=O)CCCCCCCCCCCCC [AGL577, (2S,3R)-1-(β-L-arabinopyranosyloxy)-2-tetradecanoyl amino-3-octadecanol]	2083	7792	49701				
CCCCCCCCCCCCCCCCCCCCCCCCCC(=O)N[C@@H](CO[C@H]1O[C@H](CO[C@H]2O[C@H](CO)[C@H](O)[C@H](O)[C@H]2O)[C@@H](O)[C@H](O)[C@H]1O)[C@H](O)[C@H](O)CCCCCCCCCCCCCC [AGL584, O-α-D-galactopyranosyl-(1→6)-O-α-D-glucopyranosyl-(1→1)-(2S,3S,4R)-2-amino-N-hexacosanoyl-1,3,4-octadecane triol]	29331	65084	96783				
CCCCCCCCCCCCCCCCCCCCCCCCCC(=O)N[C@@H](CO[C@H]1O[C@H](CO[C@H]2O[C@H](CO)[C@H](O)[C@H](O)[C@H]2O)[C@H](O)[C@H](O)[C@H]1O)[C@H](O)[C@H](O)CCCCCCCCCCCCCC [AGL586, O-α-D-galactopyranosyl-(1→6)-O-α-D-galactopyranosyl-(1→1)-(2S,3S,4R)-2-amino-N-hexacosanoyl-1,3,4-octa decanetriol]	5137	39750	102425				
CCCCCCCCCCCCCCCCCCCCCC[C@@H](O)C(=O)N[C@@H](CO[C@H]1O[C@H](CO)[C@H](O)[C@H](O)[C@H]1O[C@H]1O[C@H](CO)[C@H](O)[C@H](O)[C@H]1O)[C@H](O)[C@H](O)CCCCCCCCCCCCCC [S1140B-9, O-α-D-galactopyranosyl-(1→2)-O-α-D-galactopyranosyl-(1→1)-(2S,3S,4R)-2-amino-N-[(R)-2-hydroxytetracosanoyl]-1,3,4-octadecanetriol]	3387	10265	49520				
CCCCCCCCCCCCCCCCCCCCCC[C@@H](O)C(=O)N[C@@H](CO[C@H]1O[C@H](CO)[C@H](O)[C@H](O[C@H]2O[C@H](CO)[C@H](O)[C@H](O)[C@H]2NC(C)=O)[C@H]1O[C@H]1O[C@H](CO)[C@@H](O)[C@H](O)[C@H]1O)[C@H](O)[C@H](O)CCCCCCCCCCCCCC [STL-8]	4761	26474	47141				
β-galactosylceramide [reference compound]				no effect			
B1					at an extremely early period	significantly shorter	34
